# Experiments:
# ROCK1 = ROCK1 (Homo sapiens (Human), UniProt Q13464); experiment: ROCK1 ADP-Glo kinase enzyme inhibition assay; assay type: biochemical; conditions: read-out: ROCK1 IC50
# Description: We measured ROCK and PKA kinase enzyme activity inhibition by compounds using commercially available ROCK1 (Promega Corporation, cat #V9581), ROCK2 (Promega, cat #V4045), and PKA kinase (Promega, cat #V4247) ADP-Glo™ assay kits. ADP-Glo™ Kinase Assay is a luminescent ADP detection assay that provides a homogeneous method to measure kinase activity by quantifying the amount of ADP produced during a kinase reaction. The assay is performed in two steps. First, after the kinase reaction, an equal volume of ADP-Glo™ Reagent is added to terminate the kinase reaction and deplete the remaining ATP. Second, the Kinase Detection Reagent is added to simultaneously convert ADP to ATP and allow the newly synthesized ATP to be measured using a luciferase/luciferin reaction. The light generated is measured using a luminometer. A complete protocol is included with the kits and is also available at the Promega website. The assay is briefly described below. • 1. Diluted enzyme, substrate, ATP, and compounds (inhibitors) in Kinase Buffer (40 mM Tris, 7.5, 20 mM MgCl2, 0.1 mg/ml BSA, 50 μM DTT). • 2. Added 1 μl of inhibitor, 2 μl of enzyme and 2 μl of substrate/ATP mix to the wells of 384-well low volume nonbinding assay plate A series of three-fold dilution of inhibitor was prepared and assayed for each inhibitor. • 3. Incubated at room temperature for 60 minutes. • 4. Added 5 μl of ADP-Glo™ Reagent. • 5. Incubated at room temperature for 60 minutes. • 6. Added 10 μl of Kinase Detection Reagent • 7. Incubated at room temperature for 30 minutes.
# Recorded luminescence (Integration time 1 second) using a plate-based luminometer.
# Calculated Percent Enzyme Activity: First subtract the signal of the negative control (no enzyme and no inhibitor) from each sample's signal. Then use the mean relative light units (RLU) values for the 0% kinase activity (neither inhibitor nor enzyme) and the 100% kinase activity (no compound) to calculate the other percent enzyme activities remaining in the presence of the different dilutions of inhibitor. […]
# [1] = system: New Zealand White rabbits; experiment: Phenol-induced chronic model of glaucoma, IOP; assay type: in vivo, rabbit
# From the text: For these efficacy studies methods were followed as described in (Jacob et al, A promising drug candidate for the treatment of glaucoma based on a P2Y6-receptor agonist, Purinergic Signal. 2018 September; 14 (3): 271-284). In all studies, male New Zealand White rabbits were acclimatized for one week before the study. Animals were given food and water ad libitum. Body weights of rabbits ranged from 2 to 3 kg. Animals were trained for the IOP measurement procedure during the acclimation period in order to reduce stress and obtaining more accurate measurements during the study. IOP measurements were taken using the Icare® TONOVET Plus tonometer. […] The technique of use of the […] tonometer in rabbits was described previously (Gloe et al, Validation of the Icare® TONOVET Plus Rebound Tonometer in Normal Rabbit Eyes, Exp Eye Res. 2019 August; 185:107698). IOP readings are obtained only when the tonometer is held an appropriate distance and in the correct plane relative to the ocular surface. Green light appears when the orientation is correct, thereby minimizing operator errors. […] IOP was measured daily after phenol injection and IOP doubled in 8 days after phenol injection. […] IOP readings were taken on mornings of days 8 to 12 before compound application and 0.5 and 1 hour after morning application. […]
# Chain of ROCK1 (Q13464 whole entry): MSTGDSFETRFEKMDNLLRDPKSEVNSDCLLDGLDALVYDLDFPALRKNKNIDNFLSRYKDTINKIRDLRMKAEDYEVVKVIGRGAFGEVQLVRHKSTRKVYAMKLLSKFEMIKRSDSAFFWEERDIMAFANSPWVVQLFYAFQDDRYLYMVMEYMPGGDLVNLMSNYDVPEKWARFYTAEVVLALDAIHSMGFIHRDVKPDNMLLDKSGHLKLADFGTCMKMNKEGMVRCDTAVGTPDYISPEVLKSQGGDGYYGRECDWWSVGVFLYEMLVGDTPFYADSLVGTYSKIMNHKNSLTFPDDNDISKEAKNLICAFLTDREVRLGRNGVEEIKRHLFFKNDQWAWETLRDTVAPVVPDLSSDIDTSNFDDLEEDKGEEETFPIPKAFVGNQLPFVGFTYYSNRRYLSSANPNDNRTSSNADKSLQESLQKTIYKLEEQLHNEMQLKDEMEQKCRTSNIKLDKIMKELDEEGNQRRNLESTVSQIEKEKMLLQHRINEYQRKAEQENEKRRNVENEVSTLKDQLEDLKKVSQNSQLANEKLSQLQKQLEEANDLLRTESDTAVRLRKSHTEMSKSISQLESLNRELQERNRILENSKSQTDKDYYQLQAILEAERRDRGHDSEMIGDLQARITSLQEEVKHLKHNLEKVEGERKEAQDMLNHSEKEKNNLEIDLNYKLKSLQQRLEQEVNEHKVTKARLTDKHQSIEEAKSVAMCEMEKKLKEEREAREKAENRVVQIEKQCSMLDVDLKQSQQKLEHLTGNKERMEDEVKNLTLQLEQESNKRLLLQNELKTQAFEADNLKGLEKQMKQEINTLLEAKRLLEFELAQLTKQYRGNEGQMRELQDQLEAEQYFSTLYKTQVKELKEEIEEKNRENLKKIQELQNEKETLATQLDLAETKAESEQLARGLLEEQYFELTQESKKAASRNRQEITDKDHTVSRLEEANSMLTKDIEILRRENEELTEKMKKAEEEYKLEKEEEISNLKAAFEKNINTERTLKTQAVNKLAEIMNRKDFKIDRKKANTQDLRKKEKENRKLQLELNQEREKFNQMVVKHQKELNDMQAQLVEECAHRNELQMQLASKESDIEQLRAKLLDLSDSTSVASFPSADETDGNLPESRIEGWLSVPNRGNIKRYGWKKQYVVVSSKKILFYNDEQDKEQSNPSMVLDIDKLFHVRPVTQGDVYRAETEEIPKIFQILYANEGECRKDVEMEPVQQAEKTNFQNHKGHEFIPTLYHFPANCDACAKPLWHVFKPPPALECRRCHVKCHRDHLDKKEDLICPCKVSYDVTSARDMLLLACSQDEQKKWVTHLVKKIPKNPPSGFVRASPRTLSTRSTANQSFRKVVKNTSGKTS
compound,measurement,setting,value
Cl.Cl.NCC(C(=O)Nc1ccc2cnccc2c1)c1ccc(B(O)O)cc1 (stereo not drawn) [Compound 10•2HCl],IC50,ROCK1,54 nM
same,Effect on IOP after first application,"[1]; 1 mg/ml (2.34 mM) in saline, day 8 after phenol injection",decrease of IOP to normal levels within 1 hour after application
same,Effect of subsequent twice daily application on IOP,"[1]; 1 mg/ml twice daily, days 8 to 12",maintained normal IOP

# — patent US12479866B2, “Boron-containing rho kinase inhibitors” (Percipiad, Inc., priority 2019, dated 2025)
